The source of these data is patent publication US5612188A, “Automated, multicompartmental cell culture system” (Cornell Research Foundation, Inc., priority 1994, dated 1997).

Read-outs that look alike come from different tables or passages of the source.

One data set deals with lung GSH. Conditions: after BSO, before 200 mg/kg naphthalene; cited from earlier work.
The test system of data set [1] is liver GSH. The settings on record: cited from earlier work.
The nature of data set [2]: Biotransformation of naphthalene by mouse lung microsomes. It is filed as in vitro ADME. The settings on record: mouse, lung microsomes. How it is done:
(§1) Biotransformation rates of naphthalene at initial concentrations of 0.05, 0.1 and 1.0 mM by lung and liver microsomes have been determined (O'Brien, et al. (1985), supra, Buckpitt, A. R., Bahnson, L. S., and Franklin, R. B., "Hepatic and Pulmonary Microsomal Metabolism of Naphthalene to Glutathione Adducts: Factors Affecting the Relative Rates of Conjugate Formation", J. Pharmacol. Exp. Ther. 231: 291-300 (1984), which is hereby incorporated by reference), and Buckpitt, A. R., Castagnoli, Jr., N., Nelson, et al., "Stereoselectivity of Naphthalene Epoxidation by Mouse, Rat, and Hamster Pulmonary, Hepatic and Renal Microsomal Enzymes", Drug Metab. Dispos. 15: 491-498 (1987), which is hereby incorporated by reference). Assuming Michaelis-Menten kinetics, fitting s/v vs s was used to provide Vmax and Km values. Since mouse liver produces the 1R,2S- and 1S,2R-naphthalene oxide enantiomers in equal amounts at all substrate concentrations (Buckpitt, et al., 1987, supra), the calculated Vmax was divided by two to give the production rates for each enantiomer.
(§2) For the lung, the biotransformation of naphthalene was modeled as the sum of two separate reactions, each producing a different enantiomer, with the Vmax's summing to the value calculated as described above.

The subject of data set [3] is mouse lung microsomes. Described as above. It is filed as in vitro ADME. How it is done:
as §1, §2

Data set [4] is described as follows: Biotransformation of naphthalene by mouse liver microsomes. It is filed as in vitro ADME. Conditions: mouse, liver microsomes; read-out: Km, N to 1R, 2S NO. On the procedure: as §1
(Liver microsomes are vesicles of endoplasmic reticulum, rich in cytochrome P450 enzymes.)

The test system of data set [5] is mouse liver microsomes. The data set is described as above. It is filed as in vitro ADME. The settings on record: Mouse, Liver. On the procedure:
as §1

Data set [6] is described as follows: Biotransformation of naphthalene by rat lung microsomes. It is filed as in vitro ADME. The source says:
(§3) Determination of Vmax's and Km's for naphthalene oxide production and Vmax's for GSH conjugates and dihydrodiol production in rat microsomes were done in the same way as for the mouse. Sources of data were Buckpitt, et al, 1987, supra, Hesse, S. and Mezger, M., "Involvement of Phenolic Metabolites in the Irreversible Protein-binding of Aromatic Hydrocarbons: Reactive Metabolites of [^14 C]-naphthalene and [^14 C] 1-naphthol Formed by Rat Liver Microsomas", Mol. Pharmacol. 16: 667-675 (1979) which is hereby incorporated by reference, O'Brien et al., 1985, supra, van Bladeren et al., 1985, supra, and Yost, G. S., Buckpitt, A. R., Roth, R. A., and McLemore, T. L., "Mechanisms of Lung Injury by Systematically Administered Chemicals", Toxicol. Appl. Pharmacol. 101: 179-195 (1989), which is hereby incorporated by reference.

A short description of data set [7]: Biotransformation of naphthalene by rat liver microsomes. It is filed as in vitro ADME.
From the text: as §3

For another data set, the system named is CD-1 mice. Conditions: po, cited from earlier work.
The subject of a further data set is Sherman rats. The settings on record: po, cited from earlier work.
Another data set has as its system Clara cells of the lung. Conditions: similar binding levels in lung and liver; cited from earlier work.
For data set [8], the system named is mouse lung microsomes. Conditions: cited from earlier work.
In data set [9] the test system is mouse liver microsomes. Conditions: cited from earlier work.
In data set [10] the test system is mouse liver microsomes. Conditions: Observed; 1 mM naphthalene, 5 mM GSH; cited from earlier work.
Data set [11] concerns liver GSH. The settings on record: 200 mg/kg oral, rat, 6 1/2 hours; observed; cited from earlier work.
The next data set concerns mouse liver. The settings on record: 200 mg/kg naphthalene, cited from earlier work.
Another data set has as its system mouse lung. Conditions: cited from earlier work; for Covalent binding in the lung: Male Swiss-Webster mouse, ip.
[12] abbreviates: Lung, Experiment, 0.1 mM naphthalene, 6 minutes.
Where [13] appears, read: [N] 1.0 mM, Buckpitt et al., 1987.
Setting [14] is: Liver, Experiment, 0.1 mM naphthalene, 6 minutes.

As for `CCCCS(=N)(=O)CCC(N)C(=O)O` (stereo not shown) [BSO, buthionine sulfoximine], the “GSH level in lung, percent of control” value with lung GSH was 86%. Further, the “GSH level in liver, percent of control” value with liver GSH [1] (after BSO, before 200 mg/kg naphthalene) was 35%. In addition, the “hepatic and pulmonary GSH” value in the data set with liver GSH [1] (mice pretreated with BSO) is “hepatic and pulmonary GSH are depleted”. In the data set on liver GSH [1] (treatment of mice with BSO), the “GSH depletion, liver versus lung” value is “depletes GSH in the liver more than in the lung”.

For orientation: Km means the concentration of substrate that gives half-maximal velocity. The term LD50 denotes the dose at which mortality reaches 50%. In the case of `c1ccc2ccccc2c1` [naphthalene], the Km stood at 100 µM in data set [2] (read-out: Km, N to 1R, 2S NO); 400 µM in [2] (read-out: Km, N to 1S, 2R NO); 307 µM in [4]; 400 µM in data set [6] (read-out: Km, N to 1R, 2S NO); 1540 µM in data set [6] (read-out: Km, N to 1S, 2R NO); 400 µM in data set [7] (read-out: Km, N to 1R, 2S NO). Besides, in data set [7] (read-out: Km, N to 1S, 2R NO), the Km was 800 µM. The entries for the “Vmax, N to 1R, 2S NO” value in the data set with mouse lung microsomes [3] and with mouse liver microsomes [5] were 9.0 nmol/mg/min and 6.95 nmol/mg/min, respectively. The figures for the “Vmax, N to 1S, 2R NO” value in the data set on mouse lung microsomes [3] and with mouse liver microsomes [5] were 1.1 nmol/mg/min and 6.95 nmol/mg/min, respectively. Moreover, the LD50 in the data set with CD-1 mice (female CD-1 mice) is recorded as 710 mg/kg; in the data set on CD-1 mice (male CD-1 mice), 533 mg/kg; in the data set with Sherman rats (female Sherman rats) it was 2400 mg/kg; in the data set on Sherman rats (male Sherman rats) it was 2200 mg/kg. The site of toxicity result in the data set with Clara cells of the lung is given as “toxicity is limited to the Clara cells of the lung”. Also, the Covalently bound with mouse lung microsomes [8] (setting [12]) is 7.4 nmol/mg; in the data set with mouse liver microsomes [9] (setting [14]) it was 5.8 nmol/mg. Besides, the Diol formed was 4.2 nmol/mg with mouse lung microsomes [8] (setting [12]) and 11.9 nmol/mg with mouse liver microsomes [9] (setting [14]). The results for the NOH formed in the data set with mouse lung microsomes [8] (setting [12]) and in the data set on mouse liver microsomes [9] (setting [14]) were 21.2 nmol/mg and 3.5 nmol/mg, respectively. For the same compound, the “observed ratio of conjugates of 1R, 2S and 1S, 2R naphthalene oxide” value in the data set with mouse lung microsomes [8] ([N] 0.015 mM, Buckpitt and Franklin, 1989) was 30; in the data set with mouse lung microsomes [8] (setting [13]), 10. Moreover, the observed v in the data set on mouse lung microsomes [8] ([N] 0.05 mM, O'Brien et al., 1985) is 1.33 nanomoles of product/mg micros; with mouse lung microsomes [8] ([N] 0.10 mM, Buckpitt et al., 1984), 6.01 nanomoles of product/mg micros; in the data set on mouse lung microsomes [8] (setting [13]), 8.3 nanomoles of product/mg micros. For the same compound, the “1R,2S- and 1S,2R-naphthalene oxide enantiomers produced” value in the data set with mouse liver microsomes [9] (mouse liver, all substrate concentrations) was “equal amounts”. The “1,2 dihydrodiol formation rate” value in the data set with mouse liver microsomes [10] is 2.43 nmol/mg/min. In the data set on mouse liver microsomes [10], the “Conjugate 2 formation rate” value was 3.64 nmol/mg/min. Further, the “Conjugates 1 and 3 formation rate” value with mouse liver microsomes [10] is 3.56 nmol/mg/min. Moreover, in the data set with liver GSH [11], the “liver GSH, percent of the initial concentration” value is reported as 17%. In addition, the “observed binding level in liver” value in the data set with mouse liver (with BSO pretreatment) was 1069 pmol/mg; in the data set with mouse liver (without BSO) it was 255 pmol/mg. For the same compound, the “experimental covalent binding in lung” value in the data set on mouse lung (200 mg/kg naphthalene, with BSO pretreatment) was 411 pmol/mg; with mouse lung (200 mg/kg naphthalene, without BSO), 137 pmol/mg. Moreover, the “experimental increase in lung covalent binding by BSO” value in the data set with mouse lung (200 mg/kg naphthalene) is reported as 3.0 factor. For the same compound, the “Covalent binding in the lung” value was 675 pmol/mg with mouse lung (300 mg/kg) and 912 pmol/mg in the data set with mouse lung (400 mg/kg).
